Reference: ChEMBL document CHEMBL2390851, “Synthesis and preliminary in vitro biological evaluation of 7α-testosterone-chlorambucil hybrid designed for the treatment of prostate cancer” (Eur J Med Chem, 2013)
pIC50: −log10 of the molar value. Calls of active or inactive are those of the source. The rule behind the calls is not given here.

Tests used:
Assay type in all cases: functional, cell-based
LNCaP = assay: Cytotoxicity against human LNCAP cells expressing androgen receptor after 72 hrs by MTT assay
PC-3 [1] = assay: Cytotoxicity against androgen receptor deficient human PC3 cells at 160 uM after 72 hrs by MTT assay
PC-3 [2] = assay: Cytotoxicity against androgen receptor deficient human PC3 cells after 72 hrs by MTT assay; details: PC-3, 72 h

SMILES	pIC50 (LNCaP)	Activity (PC-3 [1])	pIC50 (PC-3 [2])
C[C@]12CC[C@H]3[C@@H]([C@H](C/C=C/COC(=O)CCCc4ccc(N(CCCl)CCCl)cc4)CC4=CC(=O)CC[C@@]43C)[C@@H]1CC[C@@H]2O (mixture of isomers)	4.00	inactive	
O=C(O)CCCc1ccc(N(CCCl)CCCl)cc1 [CHLORAMBUCIL]	3.91		3.88
